# Laboratory results from PubChem BioAssay AID330 (DTP/NCI, 2004).
# Several values for one entry are separate records, joined by “and”; a condition that tells them apart may be missing. Identical values can stand only once. Toxic doses and inconclusive results are not listed.
# Tested on: P388 leukemia ip, CD2F1 mice, survival T/C
# Experiment: NCI In Vivo Anticancer Drug Screen. Data for tumor model P388 Leukemia (intraperitoneal) in CD2F1 (CDF1) mice
# Conditions: endpoint: median survival time, higher = longer survival
# Procedure, shortened: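 Mice carrying the transplanted tumor received test compound or vehicle. Survival was recorded in each group, and the value is the treated-group measurement divided by that of the vehicle-treated control group.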
# [1] = dose: 6.25 mg/kg/injection, schedule: Q01DX009 (ip), vehicle: saline with Tween-80
# [2] = dose: 12.5 mg/kg/injection, schedule: Q01DX009 (ip), vehicle: saline with Tween-80
# [3] = dose: 25.0 mg/kg/injection, schedule: Q01DX009 (ip), vehicle: saline with Tween-80
# [4] = dose: 100.0 mg/kg/injection, schedule: Q04DX003 (ip), vehicle: saline with Tween-80
# [5] = dose: 200.0 mg/kg/injection, schedule: Q04DX003 (ip), vehicle: saline with Tween-80
# [6] = dose: 400.0 mg/kg/injection, schedule: Q04DX003 (ip), vehicle: saline with Tween-80
# [7] = dose: 50.0 mg/kg/injection, schedule: Q01DX005 (ip), vehicle: saline with Tween-80
# [8] = dose: 100.0 mg/kg/injection, schedule: Q01DX005 (ip), vehicle: saline with Tween-80
# [9] = dose: 50.0 mg/kg/injection, schedule: Q01DX005 (ip), vehicle: Klucel (hydroxypropylcellulose) (HPC)
# [10] = dose: 100.0 mg/kg/injection, schedule: Q01DX005 (ip), vehicle: Klucel (hydroxypropylcellulose) (HPC)
# [11] = dose: 200.0 mg/kg/injection, schedule: Q01DX005 (ip), vehicle: Klucel (hydroxypropylcellulose) (HPC)
# [12] = dose: 12.5 mg/kg/injection, schedule: Q01DX009 (ip), vehicle: Klucel (hydroxypropylcellulose) (HPC)
# [13] = dose: 50.0 mg/kg/injection, schedule: Q01DX009 (ip), vehicle: saline with Tween-80
# [14] = dose: 100.0 mg/kg/injection, schedule: Q01DX009 (ip), vehicle: saline with Tween-80
# [15] = dose: 200.0 mg/kg/injection, schedule: Q01DX009 (ip), vehicle: saline with Tween-80
smiles,measurement,setting,value
CC(/C=N\NC(=S)SCc1ccccc1)=N/N=C(N)N,T/C,[1],101 % of control
same,T/C,[2],95 % of control
same,T/C,[3],101 % of control
same,T/C,"dose: 50.0 mg/kg/injection, schedule: Q01DX009 (ip), vehicle: saline",91 % of control
same,T/C,"dose: 100.0 mg/kg/injection, schedule: Q01DX009 (ip), vehicle: saline",92 % of control
CC12CC1CCCC2OC(=O)c1cc([N+](=O)[O-])cc([N+](=O)[O-])c1 (stereo unspecified),T/C,[4],100 % of control
same,T/C,[5],95 % of control
same,T/C,[6],98 % of control
COc1c2c(cc3c1OCO3)[C@]13C=C[C@H](OC)C[C@H]1N(C2)CC3O (stereo partly specified),T/C,"dose: 0.63 mg/kg/injection, schedule: Q01DX009 (ip), vehicle: saline with Tween-80",90 % of control
same,T/C,"dose: 1.25 mg/kg/injection, schedule: Q01DX001 (ip), vehicle: saline",100 % of control
same,T/C,"dose: 1.25 mg/kg/injection, schedule: Q01DX009 (ip), vehicle: saline with Tween-80",86 % of control
same,T/C,"dose: 2.5 mg/kg/injection, schedule: Q01DX001 (ip), vehicle: saline",109 % of control
same,T/C,"dose: 5.0 mg/kg/injection, schedule: Q01DX001 (ip), vehicle: saline with Tween-80",90 % of control
CC(=O)CC(=NC(C)(C)C)Nc1ncc(Cl)c2ccccc12,T/C,[7],94 % of control
same,T/C,[8],92 % of control
same,T/C,"dose: 200.0 mg/kg/injection, schedule: Q01DX005 (ip), vehicle: saline with Tween-80",97 % of control
C[C@@]12CCC[C@@](C)(C(=O)O)[C@H]1CC[C@]13C[C@@H](CO)[C@@H](CC[C@H]12)C3,T/C,[9],99 % of control
same,T/C,[10],90 % of control
same,T/C,[11],87 % of control
CCCCCCC(C)NCC(O)COc1cccc(C)c1 (stereo unspecified),T/C,"dose: 3.12 mg/kg/injection, schedule: Q01DX009 (ip), vehicle: Klucel (hydroxypropylcellulose) (HPC)",111 % of control
same,T/C,"dose: 6.25 mg/kg/injection, schedule: Q01DX009 (ip), vehicle: Klucel (hydroxypropylcellulose) (HPC)",107 % of control
same,T/C,[12],111 % of control
O=C1NC(=O)C(C2CCOC2=O)N1 (stereo unspecified),T/C,[13],106 % of control
same,T/C,[14],102 % of control
same,T/C,[15],106 % of control
COP(=O)(OC)C1c2ccccc2-c2cccc(C(=O)O)c21 (stereo unspecified),T/C,[9],105 % of control
same,T/C,[10],106 % of control
same,T/C,[11],110 % of control
CC(C)[NH-].CC(C)[NH-].[Cl][Pt+2]([Cl])([Cl])[Cl],T/C,"dose: 22.0 mg/kg/injection, schedule: Q01DX009 (ip), vehicle: saline with Tween-80",155 % of control
same,T/C,"dose: 33.0 mg/kg/injection, schedule: Q01DX009 (ip), vehicle: saline with Tween-80",165 % of control
same,T/C,[13],152 % of control
C#Cc1cccc(N=Cc2ccc(C=Nc3cccc(C#C)c3)cc2)c1,T/C,[1],104 % of control
same,T/C,[2],112 % of control
same,T/C,[3],86 % of control
same,T/C,[15],88 % of control
COc1ccc(Nc2ncc(C)n2-c2ccc(OC)cc2)cc1,T/C,[13],98 % of control
same,T/C,[14],98 % of control
same,T/C,[15],102 % of control
CCN(CC)c1ccc2cc(S(=O)(=O)c3ccc(C)cc3)c(=O)oc2c1,T/C,[7],96 % of control
Nc1cc(=O)[nH]c(=O)[nH]1,T/C,[3],99 % of control
same,T/C,[13],100 % of control
same,T/C,[14],100 % of control
same,T/C,[15],98 % of control
CCCCCC(C)[P+](c1ccccc1)(c1ccccc1)c1ccccc1 (stereo unspecified),T/C,"dose: 0.39 mg/kg/injection, schedule: Q01DX009 (ip), vehicle: saline with Tween-80",101 % of control
same,T/C,"dose: 0.78 mg/kg/injection, schedule: Q01DX009 (ip), vehicle: saline with Tween-80",114 % of control and 120 % of control
CN(C)N1C(=O)c2ccccc2NC1c1ccccc1 (stereo unspecified),T/C,[9],87 % of control
same,T/C,[10],96 % of control
same,T/C,[11],94 % of control
C[C@@H]1CC2=CC(=O)CC[C@@H]2[C@H]2CC[C@@]3(C)[C@@H](CC[C@]3(C)O)[C@@H]21,T/C,[3],100 % of control
same,T/C,"dose: 25.0 mg/kg/injection, schedule: Q04DX003 (ip), vehicle: saline with Tween-80",100 % of control
same,T/C,[13],105 % of control
same,T/C,"dose: 50.0 mg/kg/injection, schedule: Q04DX003 (ip), vehicle: saline with Tween-80",91 % of control
same,T/C,[14],105 % of control
same,T/C,[4],104 % of control
same,T/C,[5],100 % of control
same,T/C,[6],90 % of control
C[CH2][Sn]1([CH2]C)[O]C2C(O)OC(CO)C(O)C2[O]1 (stereo unspecified),T/C,"dose: 1.56 mg/kg/injection, schedule: Q04DX003 (ip), vehicle: saline",107 % of control and 120 % of control
same,T/C,"dose: 3.12 mg/kg/injection, schedule: Q04DX003 (ip), vehicle: saline",107 % of control and 120 % of control
same,T/C,"dose: 6.25 mg/kg/injection, schedule: Q04DX003 (ip), vehicle: saline",114 % of control
same,T/C,"dose: 12.5 mg/kg/injection, schedule: Q04DX003 (ip), vehicle: saline",116 % of control
CCNC(=O)OCc1c(COC(=O)NCC)c(-c2ccc(F)cc2)n2c1CCC2,T/C,"dose: 3.13 mg/kg/injection, schedule: Q01DX009 (ip), vehicle: distilled water + Tween-80",123 % of control
COC(=O)CCSC(=S)Nc1ccc(Br)cc1,T/C,[9],100 % of control
same,T/C,[10],100 % of control
same,T/C,[11],102 % of control
CCCC(CCC)(C(=O)Nc1ccc2nc(C)cc(N)c2c1)C(=O)Nc1ccc2nc(C)cc(N)c2c1,T/C,[7],91 % of control
same,T/C,[8],96 % of control
CC(=O)OCC1OC(N2C(=O)c3ccccc3S2(=O)=O)C(OC(C)=O)C(OC(C)=O)C1OC(C)=O (stereo unspecified),T/C,"dose: 100.0 mg/kg/injection, schedule: Q04DX002 (ip), vehicle: saline with Tween-80",100 % of control
same,T/C,"dose: 200.0 mg/kg/injection, schedule: Q04DX002 (ip), vehicle: saline with Tween-80",91 % of control
same,T/C,"dose: 400.0 mg/kg/injection, schedule: Q04DX002 (ip), vehicle: saline with Tween-80",96 % of control
COc1ccc2c3c1OC1C(OC)(OC)C=CC4(Cl)[C@@H](C2)N(C)CC[C@]314 (stereo partly specified),T/C,"dose: 60.0 mg/kg/injection, schedule: Q01DX005 (ip), vehicle: Klucel (hydroxypropylcellulose) (HPC)",96 % of control
same,T/C,"dose: 120.0 mg/kg/injection, schedule: Q01DX005 (ip), vehicle: Klucel (hydroxypropylcellulose) (HPC)",96 % of control
same,T/C,"dose: 240.0 mg/kg/injection, schedule: Q01DX005 (ip), vehicle: Klucel (hydroxypropylcellulose) (HPC)",102 % of control
O=C1c2ccccc2C(=Cc2cccnc2)c2ccccc21,T/C,[1],94 % of control
same,T/C,[2],105 % of control
same,T/C,[3],102 % of control
same,T/C,[13],91 % of control
Nc1nc(SCc2ccccn2)c2[nH]cnc2n1,T/C,"dose: 66.0 mg/kg/injection, schedule: Q04DX003 (ip), vehicle: Klucel (hydroxypropylcellulose) (HPC)",122 % of control
COc1cccc2c1C(=O)c1c(O)c3c(c(O)c1C2=O)C[C@@](O)(C(C)=O)C[C@@H]3OC1CC(NCc2ccccc2)C(O)C(C)O1 (stereo partly specified),T/C,"dose: 0.78 mg/kg/injection, schedule: Q01DX009 (ip), vehicle: water",114 % of control
same,T/C,"dose: 1.56 mg/kg/injection, schedule: Q01DX009 (ip), vehicle: water",161 % of control and 162 % of control
same,T/C,"dose: 2.35 mg/kg/injection, schedule: Q04DX003 (ip), vehicle: water",106 % of control
same,T/C,"dose: 3.13 mg/kg/injection, schedule: Q01DX009 (ip), vehicle: water",166 % of control and 185 % of control
same,T/C,"dose: 6.48 mg/kg/injection, schedule: Q04DX003 (ip), vehicle: water",166 % of control
same,T/C,"dose: 9.4 mg/kg/injection, schedule: Q04DX003 (ip), vehicle: water",153 % of control
same,T/C,"dose: 10.8 mg/kg/injection, schedule: Q04DX003 (ip), vehicle: water",204 % of control
same,T/C,"dose: 12.5 mg/kg/injection, schedule: Q01DX009 (ip), vehicle: water",94 % of control
same,T/C,"dose: 18.0 mg/kg/injection, schedule: Q04DX003 (ip), vehicle: water",115 % of control
same,T/C,"dose: 18.8 mg/kg/injection, schedule: Q04DX003 (ip), vehicle: water",169 % of control
same,T/C,"dose: 37.5 mg/kg/injection, schedule: Q04DX003 (ip), vehicle: water",116 % of control
same,T/C,"dose: 75.0 mg/kg/injection, schedule: Q04DX003 (ip), vehicle: water",95 % of control
COc1ccc2[nH]c(-c3ccccc3)cc2c1,T/C,[4],105 % of control
same,T/C,[5],110 % of control
same,T/C,[6],100 % of control
C/C=C(\C)C(=O)OC1C(O)C(C)(C)C2C3C(=O)C=C(C)C2C3(C)C1OC(=O)/C(C)=C/C (stereo unspecified),T/C,[12],103 % of control
same,T/C,"dose: 25.0 mg/kg/injection, schedule: Q01DX009 (ip), vehicle: Klucel (hydroxypropylcellulose) (HPC)",100 % of control
same,T/C,"dose: 50.0 mg/kg/injection, schedule: Q01DX009 (ip), vehicle: Klucel (hydroxypropylcellulose) (HPC)",103 % of control
same,T/C,"dose: 100.0 mg/kg/injection, schedule: Q01DX009 (ip), vehicle: Klucel (hydroxypropylcellulose) (HPC)",103 % of control
